Assay results reported in patent US5312817A, “Treatment of fatigue syndrome” (priority 1991, dated 1994).

Key:
[1] = test system: acetylcholinesterase in the erythrocytes; conditions: within 2 minutes after 10 mg i.v., healthy volunteer; cited from earlier work
[2] = Side effects in treated patients; format: in vivo, human
Experimental: A complete elimination of metabolites and galanthamine takes place in 72 hours. […] The common side effects, other than the ones related to cholinergic crisis, are either nausea or vomiting, and a slight headache. However, these side effects are rare, especially when care is taken to start medication in low doses such as mentioned above.
Although galanthamine must be considered as having a high degree of safety, there have been certain side effects in a few of the patients treated. These have been slight nausea in about 30% of the cases (the nausea, however, disappearing after about one week of treatment), vomiting and dizziness in 5-10% of the patients (also disappearing after about one week of treatment in most cases), and more severe side effects in 4-6% of the patients. These more severe side effects must be considered acceptable in view of the effect of the drug; however, in patients who are suspected of developing arrhythmia, it should be considered to administer, e.g., atropine in combination with the treatment according to the invention.

[3] = test system: acetylcholinesterase as opposed to butyrylcholinesterase; conditions: cited from earlier work
[4] = test system: butyrylcholinesterase in plasma; conditions: after 10 mg i.v., healthy volunteer; cited from earlier work
[5] = test system: auditory evoked potentials in the brain stem; test: Auditory brain stem response; format: in vivo, human
Experimental: The auditory brain stem response test is based on the observation that manio-depressive patients are hypersensitive to cholinergic influences, one manifestation hereof being hypersensitivity to auditory signals as assessed by the increase of amplitude of auditory evoked potentials in the nuclei of the auditory system in the brain stem, i.e. on the "brain side" of the blood brain barrier. […] See also example 3.
Electrical potentials caused by click-stimulation in the ears are measured with electrodes positioned outside on the head of the examined parson. In the configuration of the potentials are components from the brain stem and the brain.
A patient suffering from bipolar manio-depression in the depressive stats and a healthy person, respectively.
Tablet containing 10 mg galanthamine

[6] = use as anticurare agent in anesthesiology in Eastern Block countries since around 1958; cited from earlier work
[7] = test system: persons suffering from Chronic Fatigue Syndrome; test: Double-blind cross-over trial in Chronic Fatigue Syndrome: clinician's transfer to alternative treatment; format: in vivo, human; conditions: after two weeks of treatment; 9/9 on placebo; exact p=0.00006
Source text: (§1) 20 persons suffering from Chronic Fatigue Syndrome fulfilling the criteria described in example 4 or 5.
(§2) Each patient received treatment for a minimum of 8 weeks. The first 2 weeks incorporated an escalating schedule to stabilise the patient on an appropriate dose. The trial was running for eight weeks.
(§3) 11 of the persons were randomly allocated to galanthamine treatment, and the remaining 9 to placebo treatment. The protocol for the trial made provisions for the clinician to opt after two weeks of treatment for transfer to the alternative treatment.

[8] = cited from earlier work
[9] = format: physicochemical; conditions: room temperature
Experimental: Galanthamine and its acid addition salts form crystals. […] If necessary, pharmaceutically-acceptable suspension aids may be employed. Typically, such a suspension will be employed at a concentration of 0.1-50 mg/ml, such as 1-50 mg/ml, more commonly 5-40 mg/ml, for example, 5-30 mg/ml or 10-40 mg/ml, such as 10-30 mg/ml, especially 20-30 mg/ml of galanthamine. As mentioned above, typical dosage rates when administering galanthamine by injection are the range 0.01-20 mg per day depending upon the patient. […] In other cases, dosages as low as 5 mg and as high as 200 mg per day may be appropriate for persons in this body weight range.

[10] = test system: persons suffering from Chronic Fatigue Syndrome; test: Double-blind cross-over trial in Chronic Fatigue Syndrome: patient-completed visual analogue scales; format: in vivo, human; parameters: Sleep Disturbance visual analogue scale, mean / Fatigue visual analogue scale, mean / Myalgia visual analogue scale, mean / Work Capacity/Satisfaction visual analogue scale, mean / Memory visual analogue scale, mean / Dizziness visual analogue scale, mean / Sleep visual analogue scale, mean / Work visual analogue scale, mean: scale not given here
Source text: as §1, §2, §3
(§4) The data available for the evaluation covered groups of patient-completed visual analogue scales to assess sleep disturbance, fatigue, myalgia, work capacity/satisfaction, and dizziness, together with time per response on a visual search task.
In order to assess any underlying, overall performance difference between the galanthamine and placebo treated patients, the median (the statistic which differentiates the upper and lower 50% of scores) of the changes across all scales, was computed for the placebo treated patients.

[11] = test system: persons suffering from Chronic Fatigue Syndrome; test: Double-blind cross-over trial in Chronic Fatigue Syndrome: visual search task; format: in vivo, human
Source text: as §1, §2, §3, §4

[12] = test system: persons suffering from Chronic Fatigue Syndrome; test: Double-blind cross-over trial in Chronic Fatigue Syndrome: Cognitive Failures Questionnaire; format: in vivo, human
Source text: as §1, §2
11 of the persons were randomly allocated to galanthamine treatment, and the remaining 9 to placebo treatment. The protocol for the trial made provisions for the clinician to opt after two weeks of treatment for transfer to the alternative treatment. […]

[13] = 2 hours after 10 mg tablet, treated compared to untreated
[14] = all galanthamine treated patients, 1 Week, N = 19
[15] = all galanthamine treated patients, 2 Weeks, N = 19
[16] = all galanthamine treated patients, 4 Weeks, N = 18
[17] = all galanthamine treated patients, 8 Weeks, N = 17
[18] = all galanthamine treated patients, Baseline, N = 19
[19] = randomly allocated to galanthamine (N=11), After 1 Week
[20] = randomly allocated to galanthamine (N=11), After 2 Weeks
[21] = randomly allocated to galanthamine (N=11), Baseline

COc1ccc2c3c1O[C@H]1C[C@@H](O)C=C[C@@]31CCN(C)C2 [galanthamine]
inhibition of acetylcholinesterase in the erythrocytes [1]: 65%
slight nausea, share of cases ([2]; disappearing after about one week of treatment): about 30%
vomiting and dizziness, share of patients ([2]; disappearing after about one week of treatment in most cases): 5-10%
more severe side effects, share of patients ([2]; human, in vivo): 4-6%
selectivity for acetylcholinesterase as opposed to butyrylcholinesterase ([3]; in vitro method by Thomsen et al.): about 50 fold
in vitro selectivity for acetylcholinesterase opposed the effect on butyrylcholinesterase ([3]; ratio, as reported by Thomsen, Life Sciences 46): 50 to 1
inhibition of butyrylcholinesterase in plasma [4]: no inhibition
amplitude of auditory brain stem response, depressive patient [5, 13]: dramatically increase of the amplitude
auditory brain stem response potentials, healthy person [5, 13]: potentials do not change
ability to cross the blood-brain barrier ([5]; concluded from change of potentials in the depressed person): must be able to cross the blood-brain barrier
liver toxicity or serious side effects [6]: without any reported case of liver toxicity or serious side effects
patients transferred by the clinician to the alternative treatment (failed to benefit) [7]: 1/11
time to complete elimination of metabolites and galanthamine ([8]; in vivo): 72 h
duration of an effective concentration ([8]; warranted by elimination half life, probably at least 6 hours): at least 4 hours
solubility in water [9]: only sparingly soluble
Dizziness visual analogue scale, mean [10, 14]: 8.96
Fatigue visual analogue scale, mean [10, 14]: 26.63
Memory visual analogue scale, mean [10, 14]: 5.41
Myalgia visual analogue scale, mean [10, 14]: 14.25
Sleep visual analogue scale, mean [10, 14]: 17.26
Work visual analogue scale, mean [10, 14]: 10.22
Dizziness visual analogue scale, mean [10, 15]: 6.94
Fatigue visual analogue scale, mean [10, 15]: 20.64
Memory visual analogue scale, mean [10, 15]: 4.79
Myalgia visual analogue scale, mean [10, 15]: 11.24
Sleep visual analogue scale, mean [10, 15]: 15.51
Work visual analogue scale, mean [10, 15]: 8.21
Dizziness visual analogue scale, mean [10, 16]: 6.30
Fatigue visual analogue scale, mean [10, 16]: 17.42
Memory visual analogue scale, mean [10, 16]: 4.33
Myalgia visual analogue scale, mean [10, 16]: 12.01
Sleep visual analogue scale, mean [10, 16]: 11.89
Work visual analogue scale, mean [10, 16]: 7.40
Dizziness visual analogue scale, mean [10, 17]: 4.77
Fatigue visual analogue scale, mean [10, 17]: 17.81
Memory visual analogue scale, mean [10, 17]: 4.50
Myalgia visual analogue scale, mean [10, 17]: 10.51
Sleep visual analogue scale, mean [10, 17]: 10.88
Work visual analogue scale, mean [10, 17]: 7.34
Dizziness visual analogue scale, mean [10, 18]: 8.39
Fatigue visual analogue scale, mean [10, 18]: 28.00
Memory visual analogue scale, mean [10, 18]: 5.10
Myalgia visual analogue scale, mean [10, 18]: 16.32
Sleep visual analogue scale, mean [10, 18]: 19.45
Work visual analogue scale, mean [10, 18]: 9.21
galanthamine treated patients changes on the analogue scales that fall above the placebo median ([10]; first two weeks of treatment, across all scales, exact p=0.033): 68.18%
Dizziness visual analogue scale, mean [10, 19]: 9.00
Fatigue visual analogue scale, mean [10, 19]: 29.76
Memory visual analogue scale, mean [10, 19]: 5.89
Myalgia visual analogue scale, mean [10, 19]: 15.95
Sleep Disturbance visual analogue scale, mean [10, 19]: 17.90
Work Capacity/Satisfaction visual analogue scale, mean [10, 19]: 11.61
Dizziness visual analogue scale, mean [10, 20]: 8.79
Fatigue visual analogue scale, mean [10, 20]: 25.21
Memory visual analogue scale, mean [10, 20]: 5.62
Myalgia visual analogue scale, mean [10, 20]: 13.58
Sleep Disturbance visual analogue scale, mean [10, 20]: 18.42
Work Capacity/Satisfaction visual analogue scale, mean [10, 20]: 9.64
Dizziness visual analogue scale, mean [10, 21]: 9.05
Fatigue visual analogue scale, mean [10, 21]: 29.41
Memory visual analogue scale, mean [10, 21]: 5.31
Myalgia visual analogue scale, mean [10, 21]: 17.58
Sleep Disturbance visual analogue scale, mean [10, 21]: 20.78
Work Capacity/Satisfaction visual analogue scale, mean [10, 21]: 9.43
average time per response on a visual search task, mean (standard error) ([11]; 336 h): 5.51 (0.43)
average time per response on a visual search task, mean (standard error) [11, 14]: 6.24 (0.40)
average time per response on a visual search task, mean (standard error) [11, 16]: 5.83 (0.40)
average time per response on a visual search task, mean (standard error) [11, 17]: 5.25 (0.31)
average time per response on a visual search task, mean (standard error) [11, 18]: 6.79 (0.36)
Cognitive Failures Questionnaire, mean (standard error) ([12]; 672 h): 40.94 (3.87)
Cognitive Failures Questionnaire, mean (standard error) [12, 17]: 38.47 (3.71)
Cognitive Failures Questionnaire, mean (standard error) [12, 18]: 47.74 (3.56)
